{"source": "patent US5470873A", "about": "“Diabetes prevention and treatment using gamma-pyrones” (University Technologies International, Inc., priority 1994, dated 1995)", "key": {"pancreatic beta cells": {"tested_on": "pancreatic beta cells", "assay": "Destruction of pancreatic beta cells detected by fluorescein labelled anti-insulin antibody", "format": "in vivo, NOD mice", "conditions": "compared to untreated, diabetic NOD mice", "procedure": "Fluorescein isothiocyanate-labelled anti-insulin antibody was prepared as described previously 45. Briefly, gamma globulin that was prepared by immunizing guinea pigs with glutaraldehyde polymerized porcine insulin and purified by Sephadex G-200 chromatography was purchased from Index Corp., Glenwood, Ill, USA. This material was labelled with FITC. Unconjugated FITC was removed by dialysis against 0.01M PBS (pH 7.5) and by gel filtration through a Sephadex G-25. The labelled gamma globulin was subsequently absorbed with acetone-treated mouse liver powder to eliminate nonspecific fluorescence. Pancreatic sections (from 25% of each pancreas) prepared from maltol-treated and untreated NOD mice were stained with FITC-labelled anti-insulin antibody and examined under a fluorescent microscope as described elsewhere 47.48. Briefly, pancreatic sections on the slides were flooded with FITC-labelled anti-insulin antibody and incubated in a humidity chamber overnight at 4° C. in the dark. The slides were then washed in three changes of cold PBS for a total of 20 min to remove any unattached antibody, mounted with Elvanol and observed with an Olympus fluorescence microscope ^45. As it is difficult to determine whether the lymphocytes observed in the pancreatic islets are contributing to beta cell destruction, another method was used to determine whether beta cells from maltol-treated or untreated NOD mice were destroyed or not. Sections of pancreatic islets were stained with a fluorescein-labelled anti-insulin antibody and the number of insulin-containing beta cells in the islets was estimated."}, "[1]": {"conditions": "oral; flavoring agents for foods; cited from earlier work"}, "[2]": {"assay": "Inhibition of hydrogen peroxide induced free radical production (luminol chemiluminescence)", "format": "biochemical", "conditions": "for Chemiluminescence: 3 μM luminol, 20 μl H2O2, without maltol 11845.0 ± 1414.0", "procedure": "One of the possible mechanisms for the destruction of pancreatic beta cells in autoimmune Type I diabetes is their damage by free radicals and cytokines released from macrophages and T lymphocytes. It is hypothesized that maltol can inhibit the action of these released radicals and thus prevent Type I diabetes. We measured the effect of maltol on the inhibition of free radicals produced by hydrogen peroxide.\nChemiluminescence produced by hydrogen peroxide was measured using a liquid scintillation counter (LKB 1217/1217 Rack Beta) set to the tritium channel. Briefly, luminol (5-amino-2,3-dihydro-l,4-phthalazinedione) was dissolved in dimethylsulfoxide and diluted with Krebs-Ringer bicarbonate buffer (pH 7.4) containing […] Hepes and no glucose. The final concentration of dimethylsulfoxide was 0.06 μl/ml. Under these assay conditions, 3 μM luminol and various amounts of hydrogen peroxide ranging from 5-20μl were mixed with 5 ml of Krebs-Ringer bicarbonate buffer, with or without maltol. Chemiluminescence was measured for a 30 second period beginning at 20 seconds after the addition of hydrogen peroxide."}, "[3]": {"assay": "Blood glucose levels in NOD mice (glucose oxidase method)", "format": "in vivo", "conditions": "35 weeks of age", "procedure": "(§1) NOD mice were dosed with maltol to evaluate its effect on the pathogenesis of type I diabetes. Mice received 5 mg maltol/mouse every other day from age 2 weeks until they were 20 weeks old. Maltol extracted from ginseng as described in Example 2 was used for the first 10 weeks, then maltol purchased from Sigma Co., St. Louis, MO was used thereafter. The mice were kept until they were 35 weeks old. Urine glucose was measured at 3-day intervals from 10 to 35 weeks of age. Urinary glucose and ketone levels were determined using Diastix and Ketostix reagent slips (Miles, Ontario, Canada). Individual mice were classified as being diabetic on the basis of positive glycosuria^38. […] In contrast, 78% of age-matched control mice (22 mice) spontaneously developed autoimmune diabetes. At 35 weeks of age, fasting (8 hours of fasting) and non-fasting blood glucose levels were measured. Blood was obtained from the retro-orbital venous plexus of fasting and nonfasting NOD mice. Glucose levels were measured enzymatically by the glucose oxidase method with o-dianisidine dihydrochloride as the reactive dye ^39-41 . The mean nonfasting blood glucose level of 35 ICR mice (nondiabetic control mice; NOD mice were derived from ICR mice) was 149±27 mg/dl. Any non-fasting mouse with a blood glucose level greater than 230 mg/dl (3 SD above the mean) was scored as diabetic. The mean fasting blood glucose level of 38 ICR mice was 137±28 mg/dl. Any fasting mouse with a blood glucose level greater than 221 mg/dl (3 SD above the mean) was scored as diabetic."}, "[4]": {"assay": "Prevention of clinical diabetes (glycosuria) in NOD mice", "format": "in vivo", "procedure": "as §1"}, "pancreatic islets": {"tested_on": "pancreatic islets", "assay": "Histologic changes of pancreatic islets (hematoxylin and eosin)", "format": "in vivo, NOD mice", "conditions": "compared to untreated, diabetic NOD mice", "excerpt": "Maltol-treated and untreated NOD mice were sacrificed and 25% of each pancreas was fixed in 6% Formalin. Paraffin-embedded sections were stained with hematoxylin and eosin and examined under an Olympus light microscope ^49. To see whether there are any histological differences between the pancreatic islets of DPD-treated and untreated NOD mice, the pancreatic islets of 35 week old mice were examined with the light microscope after staining with hematoxylin and eosin. […] The rest of their islets were rated as having either severe (22%), moderate (27%), mild (25%) or no (6%) insulitis. […] In addition, there were histopathological changes in their pancreatic islets that were rated as moderate (22% of examined islets), mild (30%) or as having no insulitis (15%)."}, "[5]": {"assay": "Pancreatic insulin content (immunoreactive insulin, radioimmunoassay) in NOD mice", "format": "in vivo", "procedure": "Insulin was extracted from the pancreas of non-obese diabetic (NOD) mouse by known methods ^33,34. Briefly, deep frozen pancreatic tissue (50% of each pancreas) was placed into phosphate buffered saline (PBS) and then extraction solution A (380 ml absolute alcohol, 20 ml H2 O, 8 ml concentrated HCl and some drops of alcoholic phenol red) was added. This mixture was homogenized with polytron type PT 10-20-[…] in glass tubes (15×125 mm) for 30 seconds in position 5. The homogenized material in the tubes was incubated at 4° C. for 10 hours. At the end of the incubation period, the homogenized material was centrifuged at 800 g for 5 minutes for clarification. The supernatant was saved. The pellet was re-extracted with 1 ml of extraction solution B (356 ml absolute alcohol, 124 ml H2 O and 7.5 ml HCl). The pellet in extraction solution B was incubated for 4 hours at 4° C. and then homogenized with a polytron as described above. The homogenized material was centrifuged at 800 g for 5 minutes. The supernatant was pooled with the supernatant from the first extraction. The pooled supernatant was neutralized with concentrated NH40 H (about 10 μl ) until the phenol red turned to purple. The neutralized supernatant was precipitated at 4° C. and then centrifuged at 800 g for 5 min. The supernatant, which contains insulin, was used for the measurement of insulin by radioimmunoassay. The concentration of immunoreactive insulin (IRI) in the pancreas from DPD-treated and untreated NOD mice was measured by radioimmunoassay techniques ^42-44 using mouse insulin as a standard. Briefly, the extracted samples from NOD mice were mixed with […], and anti-insulin antibody. The mixed materials were incubated for 2 hours at room temperature. At the end of the incubation period, anti-guinea pig IgG raised in sheep was added and the mixture was incubated for 30 minutes at room temperature. At the end of the incubation, the samples were centrifuged at 1500 g for 10 minutes. The supernatant was completely removed. The radioactivity of the pellets was measured. The percent of activity was determined by the following formula: [formula] On the basis of % activity in standards, a standard curve was constructed. The concentration of each unknown sample from maltol-treated or untreated NOD pancreas was read on the basis of the standard curve. […] The maltol-treated mice have insulin levels that are similar to the non-diabetic, untreated animals. About 75% of the maltol-treated mice have insulin levels over 80 μg/g pancreas and about 25% have insulin levels between 55-75 μg/g pancreas."}, "[6]": {"conditions": "immunosuppressive therapy, humans; cited from earlier work"}}}
{"smiles": "Cc1occc(=O)c1O", "note": "[maltol, 3-Hydroxy-2-methyl-4-pyrone]", "values": [{"measurement": "Destruction of pancreatic beta cells (in words)", "setting": "pancreatic beta cells", "value": "significantly less destruction of pancreatic beta cells"}, {"measurement": "Toxicity when taken orally", "setting": "[1]", "value": "very low toxicities when taken orally"}, {"measurement": "Percent inhibition of free radical production", "setting": "[2]; 0.2 mM maltol", "value": 60, "unit": "%"}, {"measurement": "Chemiluminescence", "setting": "[2]; 0.2 mM maltol", "value": "4829.3 ± 792.1", "unit": "cpm"}, {"measurement": "Percent inhibition of free radical production", "setting": "[2]; 2.0 mM maltol", "value": 98, "unit": "%"}, {"measurement": "Chemiluminescence", "setting": "[2]; 2.0 mM maltol", "value": "210. ± 55.1", "unit": "cpm"}, {"measurement": "Percent inhibition of free radical production", "setting": "[2]; 80 mM maltol", "value": 99.7, "unit": "%"}, {"measurement": "Chemiluminescence", "setting": "[2]; 80 mM maltol", "value": "31.6 ± 3.1", "unit": "cpm"}, {"measurement": "Mean fasting blood glucose", "setting": "[3]; fasting (8 hours), untreated diabetic 334±47", "value": "92 ± 17", "unit": "mg/dL"}, {"measurement": "Mean non-fasting blood glucose", "setting": "[3]; non-fasting, untreated diabetic 342±45", "value": "132 ± 19", "unit": "mg/dL"}, {"measurement": "Success in preventing clinical diabetes", "setting": "[4]", "value": 100, "unit": "%"}, {"measurement": "Mice showing signs of clinical diabetes", "setting": "[4]; 5 mg/mouse every other day, age 2 to 20 weeks, urine glucose 10 to 35 weeks, untreated 78%", "value": 0, "unit": "%"}, {"measurement": "Prevention / recurrence of clinical diabetes (in words)", "setting": "[4]; observed to 35 weeks, incl. 15 weeks after cessation of treatment", "value": "can prevent clinical diabetes completely"}, {"measurement": "Lymphocytic infiltration of the pancreatic islets (in words)", "setting": "pancreatic islets", "value": "much less lymphocytic infiltration of the pancreatic islets"}, {"measurement": "Pancreatic insulin / protection from beta cell destruction (in words)", "setting": "[5]; NOD mice", "value": "substantial protection from beta cell destruction"}, {"measurement": "Pancreatic insulin level", "setting": "[5]; about 25% of the maltol-treated mice", "value": "55-75 μg/g pancreas"}, {"measurement": "Pancreatic insulin level", "setting": "[5]; about 75% of the maltol-treated mice, majority of untreated less than 10 μg/g", "value": "over 80 μg/g pancreas"}]}
{"smiles": "O=P1(N(CCCl)CCCl)NCCCO1", "note": "(stereo not shown) [cyclophosphamide]", "values": [{"measurement": "Effect on course of IDDM", "setting": "[6]", "value": "did not alter the course of the disease"}]}
{"smiles": "CCc1occc(=O)c1O", "note": "[ethyl maltol]", "values": [{"measurement": "Toxicity when taken orally", "setting": "[1]", "value": "very low toxicities when taken orally"}]}
